US20240247253A1, “PRODUCTION METHOD OF POLYPEPTIDE, TAG, EXPRESSION VECTOR, EVALUATION METHOD OF POLYPEPTIDE, PRODUCTION METHOD OF NUCLEIC ACID DISPLAY LIBRARY, AND SCREENING METHOD” (FUJIFILM Corporation, priority 2021, published 2024)
Ends that are not written are not given here. * marks the point of attachment. ClAc = O=C(CCl)*

B1: chemically synthesized integrin binding peptide (SEQ ID NO: 126) (peptide)
peptide: CEPRGDNYRK(ClAc)GGSKKK
notes: Immobilized on a CM5 chip by amine coupling; also called CEPRGDNYRXGGSKKK

Key:
[1] = system: cell-free peptide synthesis system derived from Escherichia coli; assay: Cell-free biosynthesis of the integrin binding peptide fusion protein with tag, reaction time 10 minutes, ELISA; assay type: biochemical; settings: relative value, control without tag = 1; reaction time 10 minutes; fusion protein SEQ ID NO: 5; SKIK encoded by SEQ ID NO: 110
Method: (§1) The cell-free biosynthesis of the polypeptide was carried out in a translation solution containing a template DNA, PUREfrex 2.0 (GeneFrontier, PF201-0.25-5), and Aminoacyl tRNA (1). 1.25 μL (62.5 ng) of the template DNA prepared to 50 ng/μL, 2.5 μL of PUREfrex 2.0 Solution I, 0.25 μL of Solution II, 0.5 μL of Solution III, and 0.5 μL of Aminoacyl tRNA (1) were mixed and mixture was subjected to a reaction at 37° ° C. for 1 hour.
(§2) The amount of the biosynthesized polypeptide was measured by ELISA. 50 ng of Recombinant Human Integrin αVβ3 (R&D systems, 3050-AV-050) was immobilized in each well of a 96-well plate and blocked with Blocker Casein in PBS (Thermo, 37528), and then a cell-free biosynthesis solution diluted with Can Get Signal Immunoreaction Enhancer Solution I (TOYOBO, NKB-101) containing 5 mmol/L MgCl2 was added thereto, and the mixture was subjected to a reaction at room temperature for 3 hours. After washing with 5 mmol/L MgCl2/0.05% Tween 20-containing phosphate buffered saline (PBS), an anti-Myc antibody (Cell Signaling, 14038S) diluted with Can Get Signal Immunoreaction Enhancer Solution II (TOYOBO, NKB-101) was added thereto, and the mixture was subjected to a reaction at room temperature for 2 hours. After washing with PBS containing 5 mmol/L MgCl2/0.05% Tween 20, Super Signal ELISA Femto Substrate (Thermo, 37075) was added thereto, and the luminescence was measured. The amount of the fusion protein in the cell-free biosynthesis solution was calculated based on a calibration curve created from the fusion protein having a known concentration. The luminescence measurement was performed twice, and the average value of the amounts of the fusion protein was calculated. Table 2-1 and Table 2-2 show relative values of the biosynthesis amounts of respective fusion proteins in a case where the amount of the fusion protein of the control example was set to the reference value 1.
As a comparative control, a SKIK tag represented by SEQ ID NO: 107 was selected. The polypeptide to be biosynthesized is the fusion protein containing the integrin binding peptide, as in Example 1.
Using a template DNA including DNA sequences (SEQ ID NOs: 73 to 98) encoding VKKX tags represented by SEQ ID NOs: 27 to 52 produced in Example 1, and a DNA sequence (SEQ ID NO: 110) encoding a SKIK tag represented by SEQ ID NO: 107 produced in Example 2, the biosynthesis reaction was performed in the same manner as in Example 1 by setting the reaction time to 10 minutes. In the same manner in Example 1, the fusion protein was expressed by the cell-free peptide synthesis system and quantified by ELISA. The measurement was performed twice, and the average value of the amounts of the fusion protein was calculated. […] As control example used in Example 1, the control example of the reference value 1 has a form in which the base sequence (SEQ ID NO: 6) encoding the fusion protein is arranged immediately after the start codon ATG.

[2] = system: cell-free peptide synthesis system derived from Escherichia coli; assay: Cell-free biosynthesis of the integrin binding peptide fusion protein with N-terminal tag, 1 hour reaction, amount measured by ELISA; assay type: biochemical; settings: relative value, control example without tag = 1; fusion protein SEQ ID NO: 5; 37° C. for 1 hour; average of two measurements
Source text: In the cell-free peptide synthesis system derived from Escherichia coli, the effect of the VKKX tag on the biosynthesis amount of the polypeptide was examined. As a polypeptide to be biosynthesized, an integrin binding peptide containing cysteine and chloroacetyl lysine was selected. In this polypeptide, a thiol group of cysteine and a chloroacetyl group of chloroacetyl lysine spontaneously form a thioether bond to become a cyclic polypeptide.
A fusion protein in which an integrin binding peptide, a Myc tag, and a HiBiT tag were linked in this order was designed. As a spacer, Gly-Gly-Ser was inserted between the integrin binding peptide and the Myc tag and between the Myc tag and the HiBiT tag. The amino acid sequence of this fusion protein is SEQ ID NO: 5, and the base sequence encoding this fusion protein is SEQ ID NO: 6. In SEQ ID NO: 5, the integrin binding peptide ranges to the amino acid at the twelfth position (that is, alanine) from an N-terminal, and the amino acid at eleventh position from the N-terminal is chloroacetyl lysine. The triplet TAG at the positions 31 to 33 from the 5′ terminal of the base sequence set forth in SEQ ID NO: 6 was assigned to the codon of chloroacetyl lysine. The end of the base sequence set forth in SEQ ID NO: 6 is the stop codon TAA.
A base sequence encoding a tagged fusion protein in which methionine, a VKKX tag (any of SEQ ID nOs: 7 to 52), and a fusion protein (SEQ ID NO: 5) were linked in this order was designed. In this base sequence, a base sequence (any of SEQ ID nOs: 53 to 98) encoding a VKKX tag is arranged immediately after the start codon ATG, and a base sequence encoding a fusion protein immediately after the base sequence (SEQ ID NO: 6) encoding the VKKX tag is arranged.
As a control example for evaluating the effect of the VKKX tag, a base sequence in which a base sequence (SEQ ID NO: 6) encoding a fusion protein arranged immediately after the start codon ATG was designed.
In order to translate chloroacetyl lysine which is an unnatural amino acid, a tRNA in which the anticodon was CUA and paired with the UAG codon of mRNA was prepared. This tRNA was aminoacylated with an N-chloroacetyl lysine hosphoro 2′ deoxyribocytidylylriboadenosine (pdCpA) ester. This aminoacyl tRNA is referred to as an Aminoacyl tRNA (1).
as §1
as §2, with “Table 2-1 and Table 2-2 show relative values of the biosynthesis amounts of respective fusion proteins in a case where the amount of the fusion protein of the control example was set to the reference value 1.” left out

[3] = target: T1, Recombinant Human Integrin αVβ3 (R&D systems, 3050-AV-050) (human, UniProt P06756 31-992; P05106 27-718); assay: SPR (Biacore T-100): peptide immobilized on CM5 chip, integrin αVβ3 injected at 10, 30, 100, 300 nmol/L, 5 mmol/L MgCl2
T1 construct: Bought heterodimer
T1 sequence (P06756 31-992 limits assumed, chain 1 of 2): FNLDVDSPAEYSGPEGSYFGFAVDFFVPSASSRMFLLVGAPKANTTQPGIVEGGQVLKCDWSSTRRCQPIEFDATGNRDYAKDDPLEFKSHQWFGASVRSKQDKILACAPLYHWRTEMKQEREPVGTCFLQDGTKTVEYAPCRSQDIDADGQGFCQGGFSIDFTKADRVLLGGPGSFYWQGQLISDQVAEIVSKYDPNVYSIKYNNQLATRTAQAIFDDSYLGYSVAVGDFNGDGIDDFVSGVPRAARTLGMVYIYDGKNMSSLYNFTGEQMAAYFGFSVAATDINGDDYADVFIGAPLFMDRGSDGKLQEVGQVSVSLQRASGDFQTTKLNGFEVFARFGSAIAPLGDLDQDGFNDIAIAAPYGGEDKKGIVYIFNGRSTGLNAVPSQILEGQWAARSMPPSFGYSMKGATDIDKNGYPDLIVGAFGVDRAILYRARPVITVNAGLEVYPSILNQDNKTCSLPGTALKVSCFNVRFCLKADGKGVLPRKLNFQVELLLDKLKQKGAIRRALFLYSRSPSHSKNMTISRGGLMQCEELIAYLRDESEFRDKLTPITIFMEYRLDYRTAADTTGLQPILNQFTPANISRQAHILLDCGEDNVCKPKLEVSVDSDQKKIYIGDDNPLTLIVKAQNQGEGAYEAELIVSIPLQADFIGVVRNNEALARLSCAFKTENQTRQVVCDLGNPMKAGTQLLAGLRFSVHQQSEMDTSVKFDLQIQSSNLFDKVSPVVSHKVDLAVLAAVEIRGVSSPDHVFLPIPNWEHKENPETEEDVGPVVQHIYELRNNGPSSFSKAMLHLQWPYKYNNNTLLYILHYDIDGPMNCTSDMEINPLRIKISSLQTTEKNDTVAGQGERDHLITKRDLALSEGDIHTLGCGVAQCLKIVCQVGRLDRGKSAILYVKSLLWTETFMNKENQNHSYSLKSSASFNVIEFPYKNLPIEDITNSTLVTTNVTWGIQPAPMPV
T1 sequence (P05106 27-718 limits assumed, chain 2 of 2): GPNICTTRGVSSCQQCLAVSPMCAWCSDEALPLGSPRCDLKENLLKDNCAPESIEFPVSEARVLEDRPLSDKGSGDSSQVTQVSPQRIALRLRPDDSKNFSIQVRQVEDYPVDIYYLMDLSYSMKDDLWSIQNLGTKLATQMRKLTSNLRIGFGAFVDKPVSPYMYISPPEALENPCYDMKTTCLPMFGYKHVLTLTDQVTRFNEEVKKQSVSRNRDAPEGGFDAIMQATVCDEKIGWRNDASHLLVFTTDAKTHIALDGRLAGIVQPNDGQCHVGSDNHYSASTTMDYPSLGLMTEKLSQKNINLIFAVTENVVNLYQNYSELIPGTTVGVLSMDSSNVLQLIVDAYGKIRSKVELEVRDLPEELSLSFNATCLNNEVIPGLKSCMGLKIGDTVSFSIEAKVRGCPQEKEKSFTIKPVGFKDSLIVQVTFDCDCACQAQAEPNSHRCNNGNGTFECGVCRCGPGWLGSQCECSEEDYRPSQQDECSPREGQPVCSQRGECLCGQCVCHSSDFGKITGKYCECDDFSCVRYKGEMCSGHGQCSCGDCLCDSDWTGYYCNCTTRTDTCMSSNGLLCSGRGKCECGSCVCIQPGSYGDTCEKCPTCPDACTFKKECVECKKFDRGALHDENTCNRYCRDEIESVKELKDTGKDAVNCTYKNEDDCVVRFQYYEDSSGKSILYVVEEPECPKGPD
Method: In addition, as a comparative control, the binding ability (Kd value) of the integrin binding peptide was measured by the SPR method. An integrin binding peptide (SEQ ID NO: 126) was chemically synthesized and immobilized on a CM5 chip (Cytiva, BR100530) by an amine coupling method. The binding ability of the immobilized integrin binding peptide to Recombinant Human Integrin αVβ3 (R&D systems, 3050-AV-050) was measured using Biacore T-100 (Cytiva). As the measurement buffer, an HBS-N buffer (Cytiva, BR100670) in which MgCl₂ was added such that the final concentration was 5 mmol/L, and integrin was added thereto at a concentration of 10, 30, 100, or 300 nmol/L for 10 minutes. The CM5 chip was regenerated and used by repeating the addition of 500 mmol/L EDTA for 10 minutes twice.

Kd [3]	Molecule	Biosynthesis amount of fusion protein [1]	Biosynthesis amount of fusion protein [2]
–	SEQ ID NO: 45: VKKX tag, amino acid sequence VKKTKTTKD (VKKX Tag)	10.61	7.83
–	SEQ ID NO: 36: VKKX tag, amino acid sequence VKKTKTKKT (VKKX Tag)	13.13	10.50
–	SEQ ID NO: 47: VKKX tag, amino acid sequence VKKTKTKKDK (VKKX Tag)	15.53	8.90
–	SEQ ID NO: 34: VKKX tag, amino acid sequence VKKTKTTT (VKKX Tag)	8.59	6.69
–	SEQ ID NO: 35: VKKX tag, amino acid sequence VKKTKTDD (VKKX Tag)	8.49	5.75
–	SEQ ID NO: 32: VKKX tag, amino acid sequence VKKTKTKD (VKKX Tag)	20.56	8.04
–	SEQ ID NO: 49: VKKX tag, amino acid sequence VKKTKTKTTK (VKKX Tag)	8.75	7.44
–	SEQ ID NO: 29: VKKX tag, amino acid sequence VKKTKTD (VKKX Tag)	15.90	6.09
–	SEQ ID NO: 31: VKKX tag, amino acid sequence VKKTKTKT (VKKX Tag)	15.48	9.08
7.6 nM	B1	–	–
